Results as given in PMC12794142 (2025).

What was measured:
[1] = system: AT11 (DNA, G4) TGGTGGTGGTTGTTGTGGTGGTGGTGGT; test: CD melting at 262 nm; details: 70 mM KCl, 20 mM potassium phosphate, pH 7.0, 2 μM DNA, 20 μM ligand
[2] = system: AT11 (DNA, G4) TGGTGGTGGTTGTTGTGGTGGTGGTGGT; test: fluorescence titration (ligand intrinsic emission); details: 70 mM KCl, 20 mM potassium phosphate; for K d: per site
[3] = system: AT11 (DNA, G4) TGGTGGTGGTTGTTGTGGTGGTGGTGGT; test: 1H NMR titration, NOESY; details: 70 mM KCl, 20 mM potassium phosphate; pH 7.0, 90%/10% H2O/D2O, DMSO up to 3%
[4] = system: AT11 (DNA, G4) TGGTGGTGGTTGTTGTGGTGGTGGTGGT; test: 1H NMR titration; details: 70 mM KCl, 20 mM potassium phosphate; pH 7.0, 90%/10% H2O/D2O; 3'-end G-quartet preferred

| SMILES | ΔT m [1] | K d [2] | binding [3] | binding ([2]; pH 7.0, 20 °C, 2 μM ligand, alternating trend, not fittable) | ΔT m ([1]; additional inflection at 87 °C) | K d ([2]; pH 7.0, 20 °C, 2 μM ligand) | binding [4] | K d ([2]; pH 7.0, 20 °C, 2 μM ligand, average over multiple binding events) |
| --- | --- | --- | --- | --- | --- | --- | --- | --- |
| CC[C@H]1C[C@@H]2C[C@H]3c4[nH]c5ccc(OC)cc5c4CCN(C2)[C@@H]13 | +1 °C | 2000 ± 400 nM | yes |  |  |  |  |  |
| CN1Cc2c(ccc3c2OCO3)[C@@H]2[C@H]1c1cc3c(cc1C[C@@H]2O)OCO3 | +1 °C |  | yes | yes |  |  |  |  |
| COc1cc2c(cc1OC)-c1c3c(cc4c1[C@H](C2)N(C)CC4)OCO3 |  |  | yes |  | +3 °C | 1000 ± 700 nM |  |  |
| COc1ccc2c(c1O)-c1c3c(cc4c1[C@H](C2)N(C)CC4)OCO3 | +1 °C |  |  |  |  |  | yes | 1700 ± 300 nM |
